Test results published in patent US10669296B2, “LXR agonists and uses thereof” (Rgenix, Inc., priority 2014, dated 2020).
Read-outs that look alike come from different tables or passages of the source.

Experiments:
[1] = test system: Cancer cells (MeWo); experiment: Matrigel invasion assay; format: cell-based; settings: 1 μM drug, invasion 24 h
Description: Cancer cells (MeWo) were pre-treated in presence of 1 μM drug or control (DMSO) for 72 h after which cancer cells were switched to serum-starvation in 0.2% FBS DMEM-based media for 16 h in the presence of the drug or control, respectively. Trans-well invasion chambers (354480, BD Biosciences, Bedford, Mass.) were pre-equilibrated in DMEM-based media prior to the beginning of the assay by adding 0.5 ml of starvation media to the top and bottom chambers. After 30 min, the media in the top chamber was removed, and 0.5 ml of media containing 1×10^5 cancer cells in the presence of the drug, was added into each matrigel-coated trans-well insert. Cells were allowed to invade through the matrigel-coated inserts for 24 h at 37° C.

[2] = test system: ApoE; experiment: ApoE gene expression analysis by qRT-PCR in MeWo cancer cells; format: cell-based; settings: 48 h; for Emax at 10 µM / Emax at 1 µM: read-out: ApoE gene expression in relation to GW3965 at 1 μM (100%)
Description: Cancer cells (MeWo) were treated in presence of drug or control (DMSO) at indicated concentrations for 48 h. RNA was extracted from whole cell lysates using the Total RNA Purification Kit (17200, Norgen, Thorold, Canada). 600 ng of total RNA was then reverse transcribed into cDNA using the Verso cDNA Synthesis Kit (AB-1453/B, Fisher Scientific). 6 ng of the resulting cDNA was then mixed with SYBR green PCR Master Mix (4309155, Applied Biosystems) and the appropriate primers. Each reaction was performed in quadruplicate, and mRNA expression was quantified by performing real-time PCR amplification using a StepOne Plus Real-Time PCR System (Applied Biosystems). GAPDH was used as an endogenous control for normalization. EC50 values were calculated using Prism6 software and plotting expression values versus drug concentration. The following primers were used: [table] The results are shown in relation to GW3965 ApoE expression at 1 μM (i.e. 100%).

[3] = biological target: LXRβ (Homo sapiens (Human), UniProt P55055); experiment: ligand sensing assay (LiSA), LXRβ; format: biochemical; settings: ratio of EC50 values
Chain of LXRβ (P55055 whole entry): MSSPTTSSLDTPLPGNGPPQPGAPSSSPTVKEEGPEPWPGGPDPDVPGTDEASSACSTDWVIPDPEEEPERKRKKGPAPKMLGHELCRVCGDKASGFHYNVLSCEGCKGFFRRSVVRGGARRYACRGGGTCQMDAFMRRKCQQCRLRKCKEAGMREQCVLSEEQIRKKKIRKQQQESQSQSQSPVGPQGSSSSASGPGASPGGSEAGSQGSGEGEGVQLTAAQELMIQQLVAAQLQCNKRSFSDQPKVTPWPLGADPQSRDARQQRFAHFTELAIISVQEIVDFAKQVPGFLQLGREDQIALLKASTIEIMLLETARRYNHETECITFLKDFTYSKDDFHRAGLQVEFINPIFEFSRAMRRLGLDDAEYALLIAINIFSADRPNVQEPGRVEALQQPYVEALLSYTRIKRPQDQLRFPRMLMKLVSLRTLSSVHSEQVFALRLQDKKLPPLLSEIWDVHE
Text: As used herein, reference to the activity of an LXR agonist at LXRα and LXRβ refer to the activity as measured using the ligand sensing assay (LiSA) described in Spencer et al. J. Med. Chem. 2001, 44, 886-897, incorporated herein by reference. […] For example, the methods of the invention can be performed using an LXRβ agonist having activity for LXRβ that is at least 3-fold greater than the activity of the agonist for LXRα, or having activity for LXRβ that is at least 10-fold greater than the activity of the agonist for LXRα, or having activity for LXRβ that is at least 100-fold greater than the activity of the agonist for LXRα, or having activity for LXRβ that is at least within 3-fold of the activity of the agonist for LXRα. The term “greater activity” in the LiSA assay refers to a lower EC50.

[4] = test system: Aβ plaque burden; settings: mouse model of Alzheimer's disease, Jiang et al., Neuron 2008; cited from earlier work
[5] = test system: ApoE; experiment: Pharmacodynamic analysis of ApoE in peripheral blood lymphocytes (qRT-PCR); format: in vivo, mouse; settings: mice
Description: In Vivo Dosing and Sample Collection: 6-7 week old […] received a single dose of Compound 8 at 52.6 mg/kg, formulated in 2% DMSO/20% Propylene Glycol/78% 0.5% Methylcellulose (400 cp) at a final concentration of 4.62 mg/mL by oral gavage. Bleeds were taken at 0.5 h, 2 h, 4 h, 8 h, 16 h, 24 h and 48 h. Mice were bled twice, the first bleed was drawn submandibular and the second through intracardiac puncture. Blood was collected in Dipotassium EDTA Microtainer tubes (02-669-38, Fisher). To isolate peripheral blood lymphocytes, blood samples were centrifuged at 2000 g for 5 min. After separation of the plasma, Erythrocytes were lysed in 1 mL Erythrocyte Lysis (EL) buffer (79217, Qiagen) and incubation at room temperature for 20 min. Samples were centrifuged at 400 g for 10 min, and peripheral blood lymphocytes washed once in EL buffer, followed by one wash in PBS.
ApoE Gene Expression Analysis by qRT-PCR: RNA was extracted from peripheral blood lymphocytes using the Total RNA Purification Micro Kit (35300, Norgen, Thorold, Canada). 200-300 ng of total RNA was then reverse transcribed into cDNA using the Verso cDNA synthesis Kit (AB-1453B, Fisher Scientific) and 6 ng of the resulting cDNA was mixed with SYBR Green PCR Mater Mix (4385612, Applied Biosystems) and quantitative real-time PCR amplification was performed using an ABI Prism 7900HT Real-Time PCR System (Applied Biosystems, Austin, Tex.). Each PCR reaction was carried out in quadruplicates. Gene expression was normalized to GAPDH, which was used as an endogenous control. Primers used as described in Example 86.
Results: The results of ApoE induction in vivo by compound 8 is shown in Table 9 where Pre-Dose represents endogenous levels of ApoE induction prior to dosing, n is the number of samples analyzed, and values are expressed as fold induction over pre-dose endogenous ApoE levels (normalized to 1.0). Peak induction of compound 8 is >6-fold over background at 4 h.

[6] = test system: B16F10 melanoma cells; experiment: In vivo primary tumor growth assay; parameters: species or system mouse; settings: B16F10 in C57B16 mice
Description: For primary tumor growth studies, 5×10^4 B16F10 melanoma cells were mixed 1:1 with matrigel and subcutaneously injected into the lower flanks of 6-week old C57B16 mice. Upon the formation of palpable tumors, 4-5 days after tumor cell injection, 10 mice were randomly assigned to groups eating a control diet or a diet supplemented with compound 8 (5 and 25 mg/kg). Tumor volume was calculated as (small diameter)^2×(large diameter)/2 and tumor growth inhibition was measured relative to vehicle control.

Row | Compound | % of Cells Migrated Compared to Control [1] | ApoE gene expression in relation to GW3965 at 1 μM (100%) ([2]; 1 μM) | EC50 [2] | Emax at 10 µM ([2]; Homo sapiens, MeWo) | fold greater activity for LXRβ compared to LXRα [3] | EC50 ([2]; Homo sapiens, MeWo) | Emax at 1 µM ([2]; Homo sapiens, MeWo, 1 μM, reference value) | amyloid-beta plaques [4] | Fold ApoE Induction Over Pre-Dose Level (+/−S.D.) ([5]; 0.5 h after single oral dose 52.6 mg/kg) | Fold ApoE Induction Over Pre-Dose Level (+/−S.D.) ([5]; 2 h after single oral dose 52.6 mg/kg) | Fold ApoE Induction Over Pre-Dose Level (+/−S.D.) ([5]; 4 h after single oral dose 52.6 mg/kg) | Fold ApoE Induction Over Pre-Dose Level (+/−S.D.) ([5]; 8 h after single oral dose 52.6 mg/kg) | Fold ApoE Induction Over Pre-Dose Level (+/−S.D.) ([5]; 16 h after single oral dose 52.6 mg/kg) | Fold ApoE Induction Over Pre-Dose Level (+/−S.D.) ([5]; 24 h after single oral dose 52.6 mg/kg) | Fold ApoE Induction Over Pre-Dose Level (+/−S.D.) ([5]; 48 h after single oral dose 52.6 mg/kg) | Mean tumor volume (mm3) (+/−S.E.M.) ([6]; 5 mg/kg in diet) | Tumor growth inhibition % of control (+/−S.E.M.) ([6]; 5 mg/kg in diet) | Mean tumor volume (mm3) (+/−S.E.M.) ([6]; 25 mg/kg in diet) | Emax at 1 µM ([2]; Homo sapiens, MeWo, 1 μM)
1 | CS(=O)(=O)N1CCCC(OCCCN(Cc2cccc(C(F)(F)F)c2Cl)CC(c2ccccc2)c2ccccc2)C1 (stereo not shown) [Compound 29, {[2-chloro-3-(trifluoromethyl)phenyl]methyl}(2,2-diphenylethyl){3-[(1-methanesulfonylpiperidin-3-yl)oxy]propyl}amine] | <50% | ++ (“++” > 40% induction) | < 300 nM | > 80% | – | – | – | – | – | – | – | – | – | – | – | – | – | – | –
2 | O=C(O)Cc1cccc(OCCCN(Cc2cccc(C(F)(F)F)c2Cl)CC(c2ccccc2)c2ccccc2)c1 [GW3965, reference compound] | <70% | – | – | > 40% | approximately 6 fold | < 300 nM | 100% | therapeutic reduction of amyloid-beta plaques | – | – | – | – | – | – | – | – | – | – | –
3 | CS(=O)(=O)c1cc(OCCCN(Cc2cccc(C(F)(F)F)c2Cl)CC(c2ccccc2)c2ccccc2)cc(F)c1CO [Compound 8, {4-[3-({[2-chloro-3-(trifluoromethyl)phenyl]methyl}(2,2-diphenylethyl)amino)propoxy]-2-fluoro-6-methanesulfonylphenyl}methanol] | <50% | – | – | > 80% | – | < 1000 nM | – | – | 1.3 (+/−0.3) fold | 2.7 (+/−0.5) fold | 6.3 (+/−1.8) fold | 3.8 (+/−2.4) fold | 0.3 (+/−0.4) fold | 0.4 (+/−0.6) fold | 0.1 (+/−0.3) fold | 686 (+/−97) mm3 | 13% (+/−12%) | 475 (+/−56) mm3 | > 80%
4 | C[C@H](CCOc1cc(F)c(CO)c(S(C)(=O)=O)c1)N(Cc1cccc(C(F)(F)F)c1Cl)CC(c1ccccc1)c1ccccc1 [Compound 9, {4-[(3R)-3-({[2-chloro-3-(trifluoromethyl)phenyl]methyl}(2,2-diphenylethyl)amino)butoxy]-2-fluoro-6-methanesulfonylphenyl}methanol] | <50% | – | – | > 80% | – | < 300 nM | – | – | – | – | – | – | – | – | – | – | – | – | > 40%
